“And” between values parts separate entries of the source, which are not always exact repeats. Equal values may be shown once. ± gives the uncertainty stated by the source.
Assay: xn = mol fraction of the nth substance listed

OC[C@H]1O[C@@](CO)(O[C@H]2O[C@H](CO)[C@@H](O)[C@H](O)[C@H]2O)[C@@H](O)[C@@H]1O + O
viscosity (293.15 K, 101 kPa, x1 = 0.00581): 1.26 ± 0.15 mPa·s and 1.27 ± 0.16 mPa·s
viscosity (293.15 K, 101 kPa, x1 = 0.013): 1.96 ± 0.24 mPa·s
viscosity (293.15 K, 101 kPa, x1 = 0.0221): 3.21 ± 0.39 mPa·s
viscosity (293.15 K, 101 kPa, x1 = 0.0339): 6.2 ± 0.75 mPa·s
viscosity (293.15 K, 101 kPa, x1 = 0.05): 15.04 ± 1.8 mPa·s and 15.1 ± 1.9 mPa·s
viscosity (293.15 K, 101 kPa, x1 = 0.0732): 56.76 ± 6.8 mPa·s and 76.48 ± 9.2 mPa·s
viscosity (293.16 K, 101.3 kPa, x1 = 0.013): 1.96 ± 0.057 mPa·s
viscosity (293.16 K, 101.3 kPa, x1 = 0.073): 56.5 ± 1.6 mPa·s
viscosity (298.15 K, 100 kPa, x1 = 0.0009): 1.035 ± 0.0084 mPa·s
viscosity (298.15 K, 100 kPa, x1 = 0.001818): 0.98 ± 0.02 mPa·s
viscosity (298.15 K, 100 kPa, x1 = 0.004482): 1.104 ± 0.023 mPa·s
viscosity (298.15 K, 100 kPa, x1 = 0.007149): 1.222 ± 0.026 mPa·s
viscosity (298.15 K, 100 kPa, x1 = 0.008888): 1.295 ± 0.027 mPa·s
viscosity (298.15 K, 101 kPa, x1 = 0.003): 1.03 ± 0.011 mPa·s
viscosity (298.15 K, 101 kPa, x1 = 0.0058): 1.194 ± 0.012 mPa·s
viscosity (298.15 K, 101 kPa, x1 = 0.00581): 1.13 ± 0.14 mPa·s
viscosity (298.15 K, 101 kPa, x1 = 0.013): 1.715 ± 0.018 mPa·s and 1.7 ± 0.2 mPa·s
viscosity (298.15 K, 101 kPa, x1 = 0.017): 2.15 ± 0.023 mPa·s
viscosity (298.15 K, 101 kPa, x1 = 0.0221): 2.65 ± 0.32 mPa·s
viscosity (298.15 K, 101 kPa, x1 = 0.0339): 5.17 ± 0.62 mPa·s
viscosity (298.15 K, 101 kPa, x1 = 0.05): 11.49 ± 1.4 mPa·s and 11.8 ± 1.5 mPa·s
viscosity (298.15 K, 101 kPa, x1 = 0.0732): 43.88 ± 5.3 mPa·s and 47.98 ± 5.8 mPa·s
viscosity (303.15 K, 100 kPa, x1 = 0.0009): 0.944 ± 0.0081 mPa·s
viscosity (303.16 K, 101.3 kPa, x1 = 0.013): 1.504 ± 0.042 mPa·s
viscosity (303.16 K, 101.3 kPa, x1 = 0.073): 33.78 ± 0.92 mPa·s
viscosity (308.15 K, 100 kPa, x1 = 0.0009): 0.8578 ± 0.0078 mPa·s
viscosity (308.15 K, 100 kPa, x1 = 0.001818): 0.789 ± 0.017 mPa·s
viscosity (308.15 K, 100 kPa, x1 = 0.002681): 0.822 ± 0.018 mPa·s
viscosity (308.15 K, 100 kPa, x1 = 0.003594): 0.855 ± 0.018 mPa·s
viscosity (308.15 K, 100 kPa, x1 = 0.004482): 0.886 ± 0.019 mPa·s
viscosity (308.15 K, 100 kPa, x1 = 0.00626): 0.949 ± 0.02 mPa·s
viscosity (308.15 K, 100 kPa, x1 = 0.007149): 0.978 ± 0.021 mPa·s
viscosity (308.15 K, 100 kPa, x1 = 0.008888): 1.035 ± 0.022 mPa·s
viscosity (308.15 K, 101 kPa, x1 = 0.001814): 0.712 ± 0.015 mPa·s
viscosity (308.15 K, 101 kPa, x1 = 0.003): 0.822 ± 0.009 mPa·s
viscosity (308.15 K, 101 kPa, x1 = 0.003622): 0.777 ± 0.016 mPa·s
viscosity (308.15 K, 101 kPa, x1 = 0.0058): 0.949 ± 0.01 mPa·s
viscosity (308.15 K, 101 kPa, x1 = 0.00581): 0.89 ± 0.11 mPa·s and 0.92 ± 0.11 mPa·s
viscosity (308.15 K, 101 kPa, x1 = 0.007213): 0.915 ± 0.02 mPa·s
viscosity (308.15 K, 101 kPa, x1 = 0.0092): 1.117 ± 0.012 mPa·s
viscosity (308.15 K, 101 kPa, x1 = 0.013): 1.337 ± 0.014 mPa·s and 1.35 ± 0.16 mPa·s
viscosity (308.15 K, 101 kPa, x1 = 0.01428): 1.291 ± 0.029 mPa·s
viscosity (308.15 K, 101 kPa, x1 = 0.017): 1.654 ± 0.018 mPa·s
viscosity (308.15 K, 101 kPa, x1 = 0.01781): 1.535 ± 0.035 mPa·s
viscosity (308.15 K, 101 kPa, x1 = 0.0224): 2.075 ± 0.017 mPa·s
viscosity (308.15 K, 101 kPa, x1 = 0.0279): 2.588 ± 0.06 mPa·s
viscosity (308.15 K, 101 kPa, x1 = 0.0339): 3.8 ± 0.46 mPa·s
viscosity (308.15 K, 101 kPa, x1 = 0.0354): 3.655 ± 0.089 mPa·s
viscosity (308.15 K, 101 kPa, x1 = 0.05): 8.69 ± 1.1 mPa·s
viscosity (308.15 K, 101 kPa, x1 = 0.05167): 6.396 ± 0.16 mPa·s
viscosity (308.15 K, 101 kPa, x1 = 0.0732): 26.67 ± 3.2 mPa·s and 27.9 ± 3.4 mPa·s
viscosity (313.15 K, 100 kPa, x1 = 0.0009): 0.7866 ± 0.0076 mPa·s
viscosity (313.15 K, 101 kPa, x1 = 0.00581): 0.82 ± 0.1 mPa·s
viscosity (313.15 K, 101 kPa, x1 = 0.013): 1.2 ± 0.14 mPa·s
viscosity (313.15 K, 101 kPa, x1 = 0.0339): 3.25 ± 0.39 mPa·s
viscosity (313.15 K, 101 kPa, x1 = 0.05): 6.35 ± 0.77 mPa·s and 6.35 ± 0.79 mPa·s
viscosity (313.15 K, 101 kPa, x1 = 0.0732): 21.32 ± 2.6 mPa·s and 25.87 ± 3.1 mPa·s
viscosity (313.16 K, 101.3 kPa, x1 = 0.013): 1.193 ± 0.032 mPa·s
viscosity (313.16 K, 101.3 kPa, x1 = 0.073): 21.28 ± 0.57 mPa·s
viscosity (318.15 K, 100 kPa, x1 = 0.001818): 0.657 ± 0.014 mPa·s
viscosity (318.15 K, 100 kPa, x1 = 0.002681): 0.683 ± 0.015 mPa·s
viscosity (318.15 K, 100 kPa, x1 = 0.003594): 0.709 ± 0.015 mPa·s
viscosity (318.15 K, 100 kPa, x1 = 0.004482): 0.733 ± 0.016 mPa·s
viscosity (318.15 K, 100 kPa, x1 = 0.00626): 0.783 ± 0.017 mPa·s
viscosity (318.15 K, 100 kPa, x1 = 0.007149): 0.805 ± 0.017 mPa·s
viscosity (318.15 K, 100 kPa, x1 = 0.008888): 0.86 ± 0.02 mPa·s
viscosity (318.15 K, 101 kPa, x1 = 0.00581): 0.74 ± 0.09 mPa·s
viscosity (318.15 K, 101 kPa, x1 = 0.00722): 0.771 ± 0.016 mPa·s
viscosity (318.15 K, 101 kPa, x1 = 0.01077): 0.9 ± 0.02 mPa·s
viscosity (318.15 K, 101 kPa, x1 = 0.013): 1.06 ± 0.13 mPa·s
viscosity (318.15 K, 101 kPa, x1 = 0.01432): 0.984 ± 0.022 mPa·s
viscosity (318.15 K, 101 kPa, x1 = 0.01785): 1.164 ± 0.026 mPa·s
viscosity (318.15 K, 101 kPa, x1 = 0.02128): 1.431 ± 0.032 mPa·s
viscosity (318.15 K, 101 kPa, x1 = 0.0221): 1.51 ± 0.18 mPa·s
viscosity (318.15 K, 101 kPa, x1 = 0.0339): 2.84 ± 0.34 mPa·s
viscosity (318.15 K, 101 kPa, x1 = 0.03502): 2.618 ± 0.064 mPa·s
viscosity (318.15 K, 101 kPa, x1 = 0.05): 5.04 ± 0.61 mPa·s and 5.1 ± 0.63 mPa·s
viscosity (318.15 K, 101 kPa, x1 = 0.0732): 17.2 ± 2.1 mPa·s and 17.98 ± 2.2 mPa·s
viscosity (323.15 K, 101 kPa, x1 = 0.00581): 0.66 ± 0.08 mPa·s
viscosity (323.15 K, 101 kPa, x1 = 0.013): 0.98 ± 0.12 mPa·s
viscosity (323.15 K, 101 kPa, x1 = 0.0221): 1.36 ± 0.16 mPa·s
viscosity (323.15 K, 101 kPa, x1 = 0.0339): 2.52 ± 0.3 mPa·s
viscosity (323.15 K, 101 kPa, x1 = 0.05): 4.78 ± 0.58 mPa·s and 4.82 ± 0.59 mPa·s
viscosity (323.15 K, 101 kPa, x1 = 0.0732): 14.07 ± 1.7 mPa·s and 16.78 ± 2 mPa·s

— the CheMixHub viscosity set
